Among the data in ChEMBL document CHEMBL5291721, “A preclinical secondary pharmacology resource illuminates target-adverse drug reaction associations of marketed drugs” (Nat Commun, 2023) are AC50 values, retold here.

Usually AC50 stands for the concentration at which the activity in the assay is half-maximal. A high value points to weaker potency.

Assay [1] deals with T1, Type-1 angiotensin II receptor (Homo sapiens, UniProt P30556).
T1 sequence (P30556 whole entry): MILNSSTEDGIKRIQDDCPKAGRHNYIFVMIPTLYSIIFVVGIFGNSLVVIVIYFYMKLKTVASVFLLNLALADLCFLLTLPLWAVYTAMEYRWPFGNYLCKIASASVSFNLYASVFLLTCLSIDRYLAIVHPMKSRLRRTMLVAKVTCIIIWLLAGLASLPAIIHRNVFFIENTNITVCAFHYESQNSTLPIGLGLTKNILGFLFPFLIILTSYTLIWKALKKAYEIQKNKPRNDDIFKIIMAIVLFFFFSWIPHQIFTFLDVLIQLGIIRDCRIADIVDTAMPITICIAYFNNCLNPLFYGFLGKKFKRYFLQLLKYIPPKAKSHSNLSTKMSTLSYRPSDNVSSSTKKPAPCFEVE

Assay [2] has as its target T2, Alpha-2A adrenergic receptor (Homo sapiens, UniProt P08913).
T2 sequence (P08913 whole entry): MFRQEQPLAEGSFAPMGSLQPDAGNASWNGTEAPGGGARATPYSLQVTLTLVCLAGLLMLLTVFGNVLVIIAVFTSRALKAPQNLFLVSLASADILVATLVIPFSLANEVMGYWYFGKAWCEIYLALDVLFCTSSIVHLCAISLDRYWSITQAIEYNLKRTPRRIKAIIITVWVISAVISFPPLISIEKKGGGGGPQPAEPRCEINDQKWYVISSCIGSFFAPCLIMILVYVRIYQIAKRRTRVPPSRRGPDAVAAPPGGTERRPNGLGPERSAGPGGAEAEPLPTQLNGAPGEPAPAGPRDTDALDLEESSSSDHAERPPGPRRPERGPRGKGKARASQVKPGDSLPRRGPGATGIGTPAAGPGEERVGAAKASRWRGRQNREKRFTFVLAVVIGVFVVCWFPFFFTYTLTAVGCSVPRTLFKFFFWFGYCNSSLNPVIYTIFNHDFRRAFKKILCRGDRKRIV

For assay [3], the target named is 5-hydroxytryptamine receptor 2B (Homo sapiens, UniProt P41595).
Chain of 5-hydroxytryptamine receptor 2B (P41595 whole entry): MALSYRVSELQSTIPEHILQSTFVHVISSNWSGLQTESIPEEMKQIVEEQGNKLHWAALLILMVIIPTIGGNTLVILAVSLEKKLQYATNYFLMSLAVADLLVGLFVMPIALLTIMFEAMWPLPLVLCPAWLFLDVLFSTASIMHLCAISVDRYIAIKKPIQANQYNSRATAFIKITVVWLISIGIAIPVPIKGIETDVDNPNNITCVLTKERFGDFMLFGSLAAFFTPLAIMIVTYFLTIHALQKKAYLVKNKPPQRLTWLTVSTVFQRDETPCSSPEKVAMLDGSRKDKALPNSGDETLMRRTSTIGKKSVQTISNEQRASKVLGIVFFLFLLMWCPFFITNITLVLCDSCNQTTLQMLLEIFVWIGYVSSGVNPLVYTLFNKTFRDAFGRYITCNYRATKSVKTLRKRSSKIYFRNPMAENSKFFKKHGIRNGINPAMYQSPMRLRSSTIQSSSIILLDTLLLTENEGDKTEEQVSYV
Assay [4] deals with T3, Muscarinic acetylcholine receptor M1 (Homo sapiens, UniProt P11229).
T3 sequence (P11229 whole entry): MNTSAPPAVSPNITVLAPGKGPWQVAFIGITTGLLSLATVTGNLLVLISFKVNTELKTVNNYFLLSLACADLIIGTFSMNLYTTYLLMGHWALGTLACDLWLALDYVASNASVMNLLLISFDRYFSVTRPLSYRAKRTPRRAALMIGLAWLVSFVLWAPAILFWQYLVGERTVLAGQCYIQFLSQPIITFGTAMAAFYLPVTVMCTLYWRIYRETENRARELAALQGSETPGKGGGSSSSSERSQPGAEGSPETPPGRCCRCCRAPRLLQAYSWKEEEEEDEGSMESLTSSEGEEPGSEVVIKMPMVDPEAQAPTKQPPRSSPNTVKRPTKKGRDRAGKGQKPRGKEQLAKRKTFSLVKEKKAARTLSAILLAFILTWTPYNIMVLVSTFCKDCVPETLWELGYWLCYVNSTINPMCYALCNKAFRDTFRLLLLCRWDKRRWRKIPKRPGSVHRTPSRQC

The target of assay [5] is T4, Histamine H1 receptor (Homo sapiens, UniProt P35367). Format: functional, cell-based.
T4 sequence (P35367 whole entry): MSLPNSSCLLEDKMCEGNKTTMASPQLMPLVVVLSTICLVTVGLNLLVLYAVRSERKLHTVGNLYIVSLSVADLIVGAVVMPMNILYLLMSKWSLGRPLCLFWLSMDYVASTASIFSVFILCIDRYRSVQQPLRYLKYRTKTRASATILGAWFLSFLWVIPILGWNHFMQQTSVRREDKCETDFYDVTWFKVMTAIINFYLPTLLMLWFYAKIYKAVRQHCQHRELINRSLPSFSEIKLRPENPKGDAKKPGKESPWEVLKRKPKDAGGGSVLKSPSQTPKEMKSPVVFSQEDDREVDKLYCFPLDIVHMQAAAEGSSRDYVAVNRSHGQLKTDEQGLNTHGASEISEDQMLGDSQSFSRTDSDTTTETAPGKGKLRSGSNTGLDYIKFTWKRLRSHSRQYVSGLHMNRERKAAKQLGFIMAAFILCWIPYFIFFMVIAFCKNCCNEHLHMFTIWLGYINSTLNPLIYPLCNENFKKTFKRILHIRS
For assay [6], the target named is T4, Histamine H1 receptor. It is filed as functional, cell-based. The source holds these as a separate data set.
The target in assay [7] is T5, Type-2 angiotensin II receptor (Homo sapiens, UniProt P50052).
T5 sequence (P50052 whole entry): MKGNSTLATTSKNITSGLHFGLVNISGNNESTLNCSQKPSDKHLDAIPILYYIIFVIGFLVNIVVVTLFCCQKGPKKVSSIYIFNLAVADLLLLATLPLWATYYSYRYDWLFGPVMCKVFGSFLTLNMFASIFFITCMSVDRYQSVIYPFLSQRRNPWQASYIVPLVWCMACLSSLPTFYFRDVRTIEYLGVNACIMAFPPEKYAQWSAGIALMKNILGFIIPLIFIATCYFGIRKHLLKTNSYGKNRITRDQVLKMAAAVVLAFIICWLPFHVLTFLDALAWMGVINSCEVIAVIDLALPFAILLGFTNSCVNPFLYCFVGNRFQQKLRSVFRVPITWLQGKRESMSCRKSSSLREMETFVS
Format: functional.

In assay [8] the target is T3, Muscarinic acetylcholine receptor M1. Format: functional, cell-based.
Assay [9] has the same target. It is filed as functional, cell-based. The source holds these as a separate data set.
Assay [10] has as its target T6, Prostaglandin G/H synthase 1 (Rattus norvegicus, UniProt Q63921).
T6 sequence (Q63921 whole entry): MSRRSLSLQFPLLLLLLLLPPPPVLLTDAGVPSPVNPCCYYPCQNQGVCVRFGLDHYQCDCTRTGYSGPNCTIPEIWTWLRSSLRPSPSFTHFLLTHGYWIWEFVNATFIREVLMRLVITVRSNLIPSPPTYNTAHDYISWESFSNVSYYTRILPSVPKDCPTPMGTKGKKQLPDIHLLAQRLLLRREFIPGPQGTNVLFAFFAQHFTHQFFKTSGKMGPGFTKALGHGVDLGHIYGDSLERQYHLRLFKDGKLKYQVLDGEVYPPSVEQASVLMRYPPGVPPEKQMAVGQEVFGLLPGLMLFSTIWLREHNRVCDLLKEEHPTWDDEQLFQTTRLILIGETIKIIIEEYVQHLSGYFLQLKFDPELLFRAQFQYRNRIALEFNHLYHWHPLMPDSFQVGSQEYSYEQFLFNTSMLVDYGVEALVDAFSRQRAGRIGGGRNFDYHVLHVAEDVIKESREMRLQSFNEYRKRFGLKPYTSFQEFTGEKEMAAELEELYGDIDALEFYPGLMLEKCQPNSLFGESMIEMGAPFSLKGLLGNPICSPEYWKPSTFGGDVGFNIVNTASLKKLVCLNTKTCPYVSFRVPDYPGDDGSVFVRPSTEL
It is filed as functional.
Also: assay procedure not described here.

Take `O=C(OCC(O)CO)c1ccccc1Nc1ccnc2cc(Cl)ccc12` (stereo unspecified) [GLAFENINE]: the AC50 is > 100 µM in assay [1] and > 30 µM in assay [2].
For the molecule `Cc1cn([C@H]2C=C[C@@H](CO)O2)c(=O)[nH]c1=O` [STAVUDINE], in assay [2], the AC50 is > 30 µM.
`CCCN1C[C@H](CSC)C[C@@H]2c3cccc4[nH]cc(c34)C[C@H]21` [PERGOLIDE] displayed an AC50 in assay [3] of 8.4 nM.
As to `CCc1oc2ccccc2c1C(=O)c1cc(I)c(O)c(I)c1` [BENZIODARONE], in assay [4], the AC50 is > 30 µM.
Regarding `Nc1nc(NC2CC2)c2ncn([C@H]3C=C[C@@H](CO)C3)c2n1` [ABACAVIR], the AC50 in assay [5] and in assay [6] was > 30 µM throughout.
Consider `C1CCC(C(CC2CCCCN2)C2CCCCC2)CC1` (stereo unspecified) [PERHEXILINE], for which the concentration at half-maximal activity (AC50) in assay [7] is > 100 µM.
For `O=C(O[C@H]1C[C@H]2CC[C@@H](C1)[N+]21CCCC1)C(O)(c1ccccc1)c1ccccc1` [TROSPIUM], the figures for the AC50 in assay [8], in assay [9] and in assay [10] were > 30 µM, 2.7 nM and > 30 µM, respectively.
